From US5445951A, “Regioselective enzymatic deacylation of sucrose esters in anhydrous organic media” (priority 1993, dated 1995)
Like-named read-outs stand apart in the source and are kept apart here.

Legend:
[1] = n-octanol/water, cited from earlier work
lipase AY 30 [2] = assay: Effect of the solvent on lipase AY 30 catalyzed deacylation of SOP; type: biochemical, Candida cylindracea; conditions: for ShexaP (4.2 min) / SheptaP's (8.9 min) / SheptaP's (9.4 min) / SheptaP's ([…]): lipase AY 30, 24 hrs; for ShexaP (4.2 min): HPLC peak 4.2 min; for SheptaP's (8.9 min): HPLC peak 8.9 min; for SheptaP's (9.4 min): HPLC peak 9.4 min; for SheptaP's ([…]): HPLC peak […]; for SOA: lipase AY 30, solvent as labelled, 200 mM butanol, 24 hrs, peak 21.4 min; for SheptaP's ([…]): HPLC peak 8.2 min
Method: Identical SOP deacylations were performed with lipase AY 30 or protease type XXIII in numerous anhydrous organic solvents, as shown in Tables 12 and 13.
(§1) Solvent screening for SOP deacylation. A scintillation vial was charged successively with 100 mg of lipase AY 30 or protease type XXIII as described and 1.0 ml of 20 mM sucrose octapropionate (SOP) and 200mM butanol dissolved in an organic solvent. Following a 5 sec sonication, the vial was incubated in a controlled-temperature shaker at 45° C. and 300 RPM for 24 hrs. A 200 μl aliquot of the reaction mixture was withdrawn and centrifuged. The supernatant was collected and evaporated under a stream of N2. The residue was reconstituted in 200 μl of acetonitrile and 10 μl of this solution was analyzed by HPLC.

[3] = test system: lipase AY 30 deposited on Hyflo Super Cell; assay: Solvent effect on lipase AY 30 deposited on Hyflo Super Cell catalyzed deacetylation of SOA; type: biochemical, Candida cylindracea; conditions: immobilized lipase AY 30, 24 hrs
Method: (§2) Alcalase and lipase AY 30 were deposited on Hyflo Super Cell and used as catalysts for SOA deacetylation reactions in several anhydrous solvents.
(§3) Enzyme immobilization. The pH of a solution of 900 mg of buffered alcalase in 18 ml of water was adjusted to 9.0 with dilute NaOH. Hyflo super cell (6 g) was added and the slurry thoroughly mixed. […] Lipase AY 30 was immobilized in the same manner except that the protein solution was adjusted to pH 7.0 with sodium phosphate.
as §1, with “Enzyme and Solvent” for “Solvent”, “Screening” for “screening”, “SOA Deacetylation.” for “SOP deacylation.”, “powdered enzyme as received” for “lipase AY 30”, “prepared” for “protease type XXIII”, “octaacetate (SOA)” for “octapropionate (SOP) and 200mM butanol”

lipase AP 12 = assay: Solvent effect on lipase AP 12 catalyzed deacetylation of SOA; type: biochemical, Aspergillus niger; conditions: lipase AP 12, solvent as labelled, 24 hrs
Method: (§4) Identical enzyme catalyzed SOA deacetylations were run in numerous anhydrous solvents. After 24 hrs incubation an aliquot was analyzed by HPLC.
(§5) The pH of commercial powdered enzymes was adjusted in the following way: The enzyme (3 g) was dissolved in 25 ml of an appropriate buffer and the pH adjusted with dilute NaOH or citric/phosphoric acid solution. Cold acetone (37.5 ml at -20° C.) was added and the precipitate collected on a medium porosity glass funnel and dried overnight at 2 millitorr. The protein pellet was ground to a fine powder and equilibrated at 4° C. over saturated aqueous potassium carbonate (RH: 43%) for 24 hrs.
as §1, with “Enzyme and Solvent” for “Solvent”, “Screening” for “screening”, “SOA Deacetylation.” for “SOP deacylation.”, “powdered enzyme as received” for “lipase AY 30”, “prepared” for “protease type XXIII”, “octaacetate (SOA)” for “octapropionate (SOP) and 200mM butanol”

[4] = test system: alcalase deposited on Hyflo Super Cell; assay: Solvent effect on alcalase deposited on Hyflo Super Cell catalyzed deacetylation of SOA; type: biochemical, Bacillus licheniformis; conditions: immobilized alcalase, 4 hour incubation; for SheptaA: total of 1'-OH and 6'-OH heptaacetates
Method: as §2, §3
Enzyme and Solvent Screening for SOA Deacetylation. A scintillation vial was charged successively with 100 mg of powdered enzyme as received or prepared as described and 1.0 ml of 20 mM sucrose octaacetate (SOA) dissolved in an organic solvent. […] A 200 μl aliquot of the reaction mixture was withdrawn and centrifuged. The supernatant was collected and evaporated under a stream of N2. The residue was reconstituted in 200 μl of acetonitrile and 10 μl of this solution was analyzed by HPLC.

alcalase = biological target: T1, alcalase (Bacillus licheniformis, UniProt P00780); assay: Solvent effect on alcalase catalyzed deacetylation of SOA; type: biochemical; conditions: 24 hrs; for SheptaA: total of 1'-OH and 6'-OH heptaacetates; for SOA / ShexaA: solvent as labelled
T1 construct: purchased Novo Nordisk (gift)
T1 sequence (P00780 106-379): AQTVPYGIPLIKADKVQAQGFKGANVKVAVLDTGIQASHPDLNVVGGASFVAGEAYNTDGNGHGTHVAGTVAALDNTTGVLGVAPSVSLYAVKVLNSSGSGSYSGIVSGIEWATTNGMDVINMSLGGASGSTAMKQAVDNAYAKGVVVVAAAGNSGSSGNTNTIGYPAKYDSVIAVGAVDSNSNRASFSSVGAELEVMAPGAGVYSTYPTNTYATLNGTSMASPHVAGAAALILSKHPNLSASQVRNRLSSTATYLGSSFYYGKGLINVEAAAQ
Method: as §4
Enzyme Precipitation. Alcalase was prepared by adding 37.5 ml cold acetone (-20° C.) to 25 ml of alcalase solution as supplied by Novo. The aqueous acetone was decanted and the residue dissolved in 25 ml of pH 9.0 glycine--NaOH buffer. The pH of this solution was adjusted to 9.0 with a few drops of dilute NaOH solution. Cold acetone (37.5 ml at -20° C.) was added to the buffered alcalase solution and the precipitate collected by filtration on a medium porosity glass funnel and dried overnight at 2 millitorr. The resulting pellet was ground to a fine powder and stored at 4° C. over saturated aqueous potassium carbonate (RH: 43%) for 24 hrs.
(§6) Enzyme and Solvent Screening for SOA Deacetylation. A scintillation vial was charged successively with 100 mg of powdered enzyme as received or prepared as described and 1.0 ml of 20 mM sucrose octaacetate (SOA) dissolved in an organic solvent. Following a 5 sec sonication, the vial was incubated in a controlled-temperature shaker at 45° C. and 300 RPM for 24 hrs. A 200 μl aliquot of the reaction mixture was withdrawn and centrifuged. The supernatant was collected and evaporated under a stream of N2. The residue was reconstituted in 200 μl of acetonitrile and 10 μl of this solution was analyzed by HPLC.

lipase AY 30 [5] = assay: Effect of the solvent on lipase AY 30 SOA deacetylation; type: biochemical, Candida cylindracea; conditions: lipase AY 30, solvent as labelled, 24 hrs
Method: as §4, §6

proleather = assay: Solvent effect on proleather catalyzed deacetylation of SOA; type: biochemical, Bacillus subtilis; conditions: 24 hrs; for SheptaA: total of 1'-OH and 6'-OH heptaacetates; for SOA / ShexaA: solvent as labelled
Method: as §4, §5, §6

CCCCCC [hexane]
log P ([1]; from Laane et al.): 3.5 | ShexaP (4.2 min) (lipase AY 30 [2]): 5.8% | SheptaP's (8.9 min) (lipase AY 30 [2]): 0.6% | SheptaP's (9.4 min) (lipase AY 30 [2]): 5.7% | SheptaP's ([…]) (lipase AY 30 [2]): 8.6% | SOA (lipase AY 30 [2]): 79.3%

Cc1ccccc1 [toluene]
SOA [3]: 94.5% | SheptaA [3]: 5.5% | SOA (lipase AP 12): 94.2% | SheptaA (lipase AP 12): 5.8% | ShexaA (lipase AP 12): 0% | SOA [4]: 97.8% | ShexaA [4]: 0% | SheptaA [4]: 2.2% | SheptaA (alcalase): 6.0% | SOA (alcalase): 93.8% | ShexaA (alcalase): 0.2% | SOA (lipase AY 30 [5]): 78.7% | SheptaA (lipase AY 30 [5]): 16.5% | ShexaA (lipase AY 30 [5]): 4.8% | ShexaP (4.2 min) (lipase AY 30 [2]): 0.2% | SheptaP's (8.9 min) (lipase AY 30 [2]): 0% | SheptaP's (9.4 min) (lipase AY 30 [2]): 1.2% | SheptaP's ([…]) (lipase AY 30 [2]): 1.3% | SOA (lipase AY 30 [2]): 97.3% | SheptaA (proleather): 15.2% | SOA (proleather): 82.8% | ShexaA (proleather): 2.0%

CC(=O)OC(C)(C)C [t-butyl acetate]
log P ([1]; from Laane et al.): 1.7 | SOA [4]: 98.2% | ShexaA [4]: 0% | SheptaA [4]: 1.8%

CCOC(C)(C)C [t-butyl ethyl ether]
log P ([1]; from Laane et al.): 1.9 | SOA (lipase AY 30 [5]): 40.8% | SheptaA (lipase AY 30 [5]): 38.1% | ShexaA (lipase AY 30 [5]): 21.1% | SheptaA (proleather): 2.8% | ShexaA (proleather): 0%

CCCCC(=O)CC [3-heptanone]
log P ([1]; from Laane et al.): 1.8 | SOA (lipase AY 30 [5]): 85.1% | SheptaA (lipase AY 30 [5]): 14.9% | ShexaP (4.2 min) (lipase AY 30 [2]): 0% | SheptaP's (8.9 min) (lipase AY 30 [2]): 0.8% | SheptaP's (9.4 min) (lipase AY 30 [2]): 2.9% | SheptaP's ([…]) (lipase AY 30 [2]): 3.3% | SOA (lipase AY 30 [2]): 93.0%

CCCCCCCO [heptanol]
log P ([1]; from Laane et al.): 2.5 | SOA (lipase AY 30 [5]): 93.4% | SheptaA (lipase AY 30 [5]): 6.0% | ShexaA (lipase AY 30 [5]): 0.6% | ShexaP (4.2 min) (lipase AY 30 [2]): 0% | SheptaP's (8.9 min) (lipase AY 30 [2]): 0% | SheptaP's (9.4 min) (lipase AY 30 [2]): 0.7% | SheptaP's ([…]) (lipase AY 30 [2]): 1.4% | SOA (lipase AY 30 [2]): 97.9%

CCCCCOCCCCC [dipentyl ether]
log P ([1]; from Laane et al.): 3.9

C1CCCCC1 [cyclohexane]
ShexaP (4.2 min) (lipase AY 30 [2]): 2.8% | SheptaP's (8.9 min) (lipase AY 30 [2]): 0.4% | SheptaP's (9.4 min) (lipase AY 30 [2]): 5.2% | SheptaP's ([…]) (lipase AY 30 [2]): 5.6% | SOA (lipase AY 30 [2]): 86%

ClC(Cl)Cl [chloroform]
SOA (lipase AY 30 [5]): 86.7% | SheptaA (lipase AY 30 [5]): 11.6% | ShexaA (lipase AY 30 [5]): 1.7%

CCCCCCCC [octane]
log P ([1]; from Laane et al.): 5.0 | ShexaP (4.2 min) (lipase AY 30 [2]): 7.7% | SheptaP's (8.9 min) (lipase AY 30 [2]): 0.5% | SheptaP's (9.4 min) (lipase AY 30 [2]): 2.9% | SheptaP's ([…]) (lipase AY 30 [2]): 8.9% | SOA (lipase AY 30 [2]): 80.0%

C1CCOC1 [THF, tetrahydrofuran]
SOA [3]: 98. % | SheptaA [3]: 2.0% | SOA (lipase AP 12): 98.4% | SheptaA (lipase AP 12): 1.6% | ShexaA (lipase AP 12): 0% | SOA [4]: 97.3% | ShexaA [4]: 0% | SheptaA [4]: 2.7% | SheptaA (alcalase): 2.0% | SOA (alcalase): 98.0% | ShexaA (alcalase): 0% | SOA (lipase AY 30 [5]): 98.7% | SheptaA (lipase AY 30 [5]): 1.3% | ShexaA (lipase AY 30 [5]): 0% | ShexaP (4.2 min) (lipase AY 30 [2]): 0.3% | SheptaP's (8.9 min) (lipase AY 30 [2]): 0% | SheptaP's (9.4 min) (lipase AY 30 [2]): 0.1% | SheptaP's ([…]) (lipase AY 30 [2]): 1.6% | SOA (lipase AY 30 [2]): 98.0% | SheptaA (proleather): 2.6% | SOA (proleather): 97.4% | ShexaA (proleather): 0%

O=C1CCCCC1 [cyclohexanone]
log P ([1]; from Laane et al.): 0.96 | SOA (lipase AY 30 [5]): 97.5% | SheptaA (lipase AY 30 [5]): 2.5% | ShexaA (lipase AY 30 [5]): 0% | ShexaP (4.2 min) (lipase AY 30 [2]): 0% | SheptaP's (8.9 min) (lipase AY 30 [2]): 0% | SheptaP's (9.4 min) (lipase AY 30 [2]): 0.3% | SheptaP's ([…]) (lipase AY 30 [2]): 0.9% | SOA (lipase AY 30 [2]): 98.8%

CCCCCCCCO [octanol]
log P [1]: 3.0 | ShexaP (4.2 min) (lipase AY 30 [2]): 0% | SheptaP's (8.9 min) (lipase AY 30 [2]): 0% | SheptaP's (9.4 min) (lipase AY 30 [2]): 1.1% | SheptaP's ([…]) (lipase AY 30 [2]): 1.8% | SOA (lipase AY 30 [2]): 97.1%

c1ccccc1 [benzene]
SOA [3]: 97.9% | SheptaA [3]: 2.1% | SOA (lipase AP 12): 96.6% | SheptaA (lipase AP 12): 3.4% | ShexaA (lipase AP 12): 0% | SOA [4]: 97.9% | ShexaA [4]: 0% | SheptaA [4]: 2.1% | SheptaA (alcalase): 6.7% | SOA (alcalase): 93.3% | ShexaA (alcalase): 0% | SOA (lipase AY 30 [5]): 97.9% | SheptaA (lipase AY 30 [5]): 1.7% | ShexaA (lipase AY 30 [5]): 0.4% | SheptaA (proleather): 13.9% | SOA (proleather): 84.8% | ShexaA (proleather): 1.4%

CCC(C)(C)OC [t-amyl methyl ether]
log P ([1]; from Laane et al.): 1.9 | SOA (lipase AY 30 [5]): 45% | SheptaA (lipase AY 30 [5]): 37.1% | ShexaA (lipase AY 30 [5]): 17.9%

CCCCCCC [heptane]
log P ([1]; from Laane et al.): 4.0 | ShexaP (4.2 min) (lipase AY 30 [2]): 6.6% | SheptaP's (8.9 min) (lipase AY 30 [2]): 0.5% | SheptaP's (9.4 min) (lipase AY 30 [2]): 4.4% | SheptaP's ([…]) (lipase AY 30 [2]): 8.9% | SOA (lipase AY 30 [2]): 79.6%
